These sequences were tested on pig oocyte ZP (assay: Landscape phage library selection on pig oocytes with intact zona pellucida, after negative selection on cat, dog and cow oocytes). Details: 9-mer peptides displayed on landscape phage.
Format: binding
Protocol: Using a strategy similar to the strategy of Example 2, 9-mer peptides that bind specifically to pig oocyte ZP were identified using a landscape phage library. In this library, foreign (non-phage) 9-mer peptides are expressed in each pVIII copy over the phage surface resulting in thousands of peptide copies per phage particle. […] Prior to phage display library selection on pig oocytes, negative selection steps on cat, dog and cow oocytes were performed. Sequences of the identified peptides are DPGLSLGDD (SEQ ID NO:41); AYNLGEGDT (SEQ ID NO:42); GQQGLNGDS (SEQ ID NO:43); DVGGGTGTE (SEQ ID NO:44); GPNSSDADS (SEQ ID NO:45); and GEGGYGSHD (SEQ ID NO:46).

Question: For “AYNLGEGDT (Phage library random peptide insert) [SEQ ID NO:42]”, which “binding to pig ZP” value is on record?
Answer: specifically recognize and bind to pig ZP

Question: For “DPGLSLGDD (Phage library random peptide insert) [SEQ ID NO:41]”, which “binding to pig ZP” value is on record?
Answer: specifically recognize and bind to pig ZP

Question: Which “binding to pig ZP” value does the source give for “DVGGGTGTE (Phage library random peptide insert) [SEQ ID NO:44]” here?
Answer: specifically recognize and bind to pig ZP

Question: Which “binding to pig ZP” value does the source give for “GEGGYGSHD (Phage library random peptide insert) [SEQ ID NO:46]” here?
Answer: specifically recognize and bind to pig ZP

Question: How did the “binding to pig ZP” value turn out when “GPNSSDADS (Phage library random peptide insert) [SEQ ID NO:45]” was run?
Answer: specifically recognize and bind to pig ZP

Question: For “GQQGLNGDS (Phage library random peptide insert) [SEQ ID NO:43]”, which “binding to pig ZP” value is on record?
Answer: specifically recognize and bind to pig ZP

These sequences were tested on dog oocyte ZP (assay: Landscape phage library selection on dog oocytes with intact zona pellucida). Details: 9-mer peptides displayed on landscape phage.
Format: binding
Excerpt: Using a strategy similar to the strategy of Examples 2 and 5, 9-mer peptides that bind to dog oocyte ZP were identified using a landscape phage library. In this library, foreign (non-phage) 9-mer peptides are expressed in each pVIII copy over the phage surface resulting in thousands of peptide copies per phage particle. […] Sequences of the identified peptides are DDLNSFVND (SEQ ID NO:47); ADLAAFYDD (SEQ ID NO:48); EPGGMVGSD (SEQ ID NO:49); DGVYLVGDD (SEQ ID NO:50); DWSGQDVEN (SEQ ID NO:51); and GMVGSGYDS (SEQ ID NO:52).

Question: “ADLAAFYDD (Phage library random peptide insert) [SEQ ID NO:48]” was tested. Which “binding to dog ZP” value did it give?
Answer: specifically recognize and bind to dog ZP

Question: With “DDLNSFVND (Phage library random peptide insert) [SEQ ID NO:47]” as the sequence, how does the “binding to dog ZP” value read?
Answer: specifically recognize and bind to dog ZP

Question: “DGVYLVGDD (Phage library random peptide insert) [SEQ ID NO:50]” was tested. Which “binding to dog ZP” value did it give?
Answer: specifically recognize and bind to dog ZP

Question: With “DWSGQDVEN (Phage library random peptide insert) [SEQ ID NO:51]” as the sequence, how does the “binding to dog ZP” value read?
Answer: specifically recognize and bind to dog ZP

Question: Which “binding to dog ZP” value does the source give for “EPGGMVGSD (Phage library random peptide insert) [SEQ ID NO:49]” here?
Answer: specifically recognize and bind to dog ZP

Question: For “GMVGSGYDS (Phage library random peptide insert) [SEQ ID NO:52]”, which “binding to dog ZP” value is on record?
Answer: specifically recognize and bind to dog ZP

These sequences were tested on cat oocyte ZP (assay: Landscape phage library selection on cat oocytes with intact zona pellucida). Details: 9-mer peptides displayed on landscape phage.
Format: binding
Excerpt: Using a strategy similar to the strategy of Examples 2, 5, and 7, 9-mer peptides that bind to cat oocyte ZP were identified using a landscape phage library. In this library, foreign (non-phage) 9-mer peptides are expressed in each pVIII copy over the phage surface resulting in thousands of peptide copies per phage particle. […] Sequences of the identified peptides are AGSSYTQDS (SEQ ID NO:53); EVNGGSADS (SEQ ID NO:54); EAYPGLDWD (SEQ ID NO:55); and VKSEDPSLN (SEQ ID NO:56).

Question: Which “binding to cat ZP” value does the source give for “AGSSYTQDS (Phage library random peptide insert) [SEQ ID NO:53]” here?
Answer: specifically recognize and bind to cat ZP

Question: With “EAYPGLDWD (Phage library random peptide insert) [SEQ ID NO:55]” as the sequence, how does the “binding to cat ZP” value read?
Answer: specifically recognize and bind to cat ZP

Question: Which “binding to cat ZP” value does the source give for “EVNGGSADS (Phage library random peptide insert) [SEQ ID NO:54]” here?
Answer: specifically recognize and bind to cat ZP

Question: With “VKSEDPSLN (Phage library random peptide insert) [SEQ ID NO:56]” as the sequence, how does the “binding to cat ZP” value read?
Answer: specifically recognize and bind to cat ZP

Source: US8871901B2, “Phage constructs, sequences and antigenic compositions for immunocontraception of animals” (Auburn University, priority 2010, dated 2014)
